Experiment [1] deals with HCV genotype 1a Y93H variant with tyrosine 93 changed to histidine in the NS5A protein. The experiment is described as follows: microbe, parasite or virus in culture. Format: cell-based. The note with it: for Fold-Synergistic G-1a (Y93H): genotype 1a Y93H replicon, test compound titrated with compound N47 fixed at 200 nM versus singly; for pEC50: Hepatitis C virus. The gist of the method: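 In an HCV genotype 1a replicon cell-based assay carrying the NS5A Y93H substitution, BMS-790052 was tested alone and in combination with a fixed amount of a second test compound. The combinations were examined for synergistic activity.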
Background: A replicon is a self-replicating genome or part of one, used to study replication in cells.

In experiment [2] the test system is HCV genotype 1a L31V variant with leucine 31 changed to valine in the NS5A protein. The experiment is described as follows: microbe, parasite or virus in culture. Particulars: for Fold-Synergistic G-1a (L31V): genotype 1a L31V replicon, test compound titrated with compound N47 fixed at 200 nM versus singly; for pEC50: Hepatitis C virus. The format is cell-based.

Experiment [3] has as its system HCV genotype-1a variant with glutamine 30 changed to glutamate in the NS5A protein. The note with it: cited from earlier work.
For experiment [4] the test system is unchanged. The format is cell-based. Particulars: test compound titrated with BMS-790052 fixed at 200 nM; genotype 1a Q30E replicon. Summed up:
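Synergy was assessed by combining several fixed amounts of an NS5A-targeting compound with a titration of the second compound of interest.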

Where [5] appears, read: read-out: EC50, titrated singly.
[6] abbreviates: read-out: EC50 in combination with compound N47.
[7] abbreviates: compound alone, genotype 1a Q30E replicon, read-out: EC50, titrated singly.

Here are results for 8 compounds from patent US20160158200A1, “Combinations of Hepatitis C Virus Inhibitors” (priority 2013, published 2016).

pEC50: −log10 of the molar value. Where two headings read alike, the source gives them in different places.

Turning to `CN(C)[C@@H](C(=O)N1CCC[C@H]1c1ncc(-c2ccc(-c3ccc(-c4ccc(-c5cnc([C@@H]6CCCN6C(=O)[C@@H](c6ccccc6)N(C)C)[nH]5)cc4)cc3)cc2)[nH]1)c1ccccc1`, in experiment [1], the “Fold-Synergistic G-1a (Y93H)” value is reported as under 10 fold. The “Fold-Synergistic G-1a (L31V)” value in experiment [2] is under 10 fold.
Turning to `COC(=O)N[C@@H](C(=O)N1CCC[C@H]1c1ncc(-c2ccc(-c3ncc(-c4cnc([C@@H]5CCCN5C(=O)[C@H](NC(=O)OC)c5ccccc5)[nH]4)cn3)cc2)[nH]1)c1ccccc1`, the “Fold-Synergistic G-1a (Y93H)” value in experiment [1] is under 10 fold. In addition, the “Fold-Synergistic G-1a (L31V)” value in experiment [2] was under 10 fold.
With `C[C@H](NC(=O)[C@@H](c1ccccc1)N(C)C)c1ncc(-c2ccc(-c3ccc(-c4cnc([C@@H]5CCCN5C(=O)[C@@H](c5ccccc5)N(C)C)[nH]4)cn3)cc2)[nH]1`, the “Fold-Synergistic G-1a (Y93H)” value in experiment [1] is reported as under 10 fold. Moreover, in experiment [2], the “Fold-Synergistic G-1a (L31V)” value is listed as under 10 fold.
Take `CN(C)[C@@H](C(=O)N1CCCC[C@H]1c1ncc(-c2ccc(-c3ccc(-c4cnc([C@@H]5CCCCN5C(=O)[C@@H](c5ccccc5)N(C)C)[nH]4)cc3)cc2)[nH]1)c1ccccc1`: the “Fold-Synergistic G-1a (Y93H)” value in experiment [1] is over 10 fold. Besides, the “Fold-Synergistic G-1a (L31V)” value in experiment [2] is under 10 fold.
In the case of `COC(=O)N[C@H](C(=O)N1CCC[C@H]1c1nc(-c2ccc(-c3ccc(-c4c[nH]c([C@@H]5CCCN5C(=O)[C@@H](NC(=O)OC)C(C)C)n4)cc3)cc2)c[nH]1)C(C)C` [BMS-790052, reference compound], the pEC50 (usually the EC50 on a negative log10 scale, so that one unit is a factor of ten) in experiment [1] (setting [5]) was about 7.16; in experiment [1] (setting [6]), over 9.30; in experiment [3] (setting [7]), about 6.70; in experiment [3] (fixed P-55 at 200 nM, genotype 1a Q30E, read-out: EC50 of BMS-790052 in the presence of P-55) it was about 8.70; in experiment [2] (setting [5]), about 7.25; in experiment [2] (setting [6]), over 9.30. Further, the “synergistic inhibitory effect for the combination” value in experiment [1] (titrated with 200 nM compound N47, genotype 1a Y93H) is over 100 fold. Moreover, the “reciprocal synergistic inhibitory effect for the combination” value in experiment [3] (BMS-790052 titrated with P-55 fixed at 200 nM) is reported as about 100 fold. The “synergistic inhibitory effect with the combination” value in experiment [2] (titrated with 200 nM compound N47, genotype 1a L31V) is recorded as over 100 fold.
Take `CC(C)CC(=O)N[C@H](c1ncc(-c2ccc(-c3ccc(-c4cnc([C@@H](NC(=O)CC(C)C)C(C)C)[nH]4)cc3)cc2)[nH]1)C(C)C` [Compound P-55]: the “Fold-Synergistic 1a (Q30E)” value in experiment [4] was over 100 fold. Further, in experiment [3] (P-55 titrated with BMS-790052 fixed at 200 nM), the “synergistic inhibitory effect with the combination” value is over 100 fold. Further, the pEC50 is under 6.70 in experiment [3] (setting [7]) and about 8.70 in experiment [3] (fixed BMS-790052 at 200 nM, genotype 1a Q30E, read-out: EC50 of P-55 in the presence of BMS-790052).
For the compound `COC(=O)N[C@H](C(=O)N1C2CC2CC[C@H]1c1ncc(-c2ccc(-c3ccc(-c4cnc([C@@H]5CCC6CC6N5C(=O)[C@@H](NC(=O)OC)C(C)C)[nH]4)cc3)cc2)[nH]1)C(C)C` (stereo partly shown) [drawing 2291], in experiment [1], the “Fold-Synergistic G-1a (Y93H)” value was over 100 fold. Also, the “Fold-Synergistic G-1a (L31V)” value in experiment [2] is listed as over 100 fold.
With `COC(=O)N[C@H](C(=O)N1C2CC2CC[C@H]1c1ncc(-c2ccc(-c3ccc(-c4cnc([C@@H]5CCC6CC6N5C(=O)[C@@H](NC(=O)OC)C(C)C)[nH]4)cc3)cc2)[nH]1)C(C)C` (stereo partly shown) [drawing 2298], the “Fold-Synergistic G-1a (Y93H)” value in experiment [1] was over 100 fold. The “Fold-Synergistic G-1a (L31V)” value in experiment [2] is recorded as over 100 fold.
